Source: patent publication US10172814B2, “Substituted pyridyl-cycloalkyl-carboxylic acids, compositions containing them and medical uses thereof” (BAYER PHARMA AKTIENGESELLSCHAFT, priority 2014, dated 2019)
Read-outs that look alike come from different tables or passages of the source.

Legend:
[1] = Unbound plasma concentration in human KI mice of the CFA model; type: in vivo; settings: female, human PTGES knock-in (humanized KI, transgenic) mice, mouse, read-out: Plasma concentration Cplasma-unbound
Protocol: (§1) At termination of the experiments (48 h after CFA, 1 h after dose), hind paw tissue is collected for analysis of PGE2 levels (ELISA, Cayman Chemical item no. 514531). […] Statistical analysis is performed with one-way analysis of variance, followed by Bonferroni's multiple comparison test vs. vehicle controls using the GraphPad PRISM software, *p<0.05, **p<0.01.

[2] = tested on: CFA-induced pain behavior in WT mice; test: CFA inflammation model with pain read out (dynamic weight bearing); type: in vivo; settings: single oral dosing on day 2 post-CFA, example 17: 30, 100 mg/kg, example 44: 30, 75 mg/kg
Protocol: Efficacy in CFA Inflammation Model with Pain Read Out
Wild type (WT) female c57bl/6 mice (Taconic) received intraplantar injection of complete Freund's adjuvant (CFA) (30 μl, 1 mg/ml, Sigma) into the left hind paw under isoflurane anesthesia. […] Spontaneous pain-related behavior in freely moving animals was assessed using the automated dynamic weight bearing device (DWB, Bioseb, France) according to published and validated protocols: Robinson I, Sargent B, Hatcher J P, Neurosci Lett. 2012 Aug. 30; 524(2):107-10. Use of dynamic weight bearing as a novel end-point for the assessment of Freund's Complete Adjuvant induced hypersensitivity in mice; Tétreault P, Dansereau M A, Doré-Savard L, Beaudet N, Sarret P. Physiol Behav. 2011 Sep. […] 2014 Jul. 30; 232:118-24. Use of dynamic weight bearing as a novel end-point for the assessment of abdominal pain in the LPS-induced peritonitis model in the rat. For behavioral testing, the animal was placed inside a Plexiglas chamber and allowed to move freely within the apparatus for a 5 min period, subsequently pain behavior is recorded for a test period of another 5 min.
Statistical analysis is performed with one-way analysis of variance, followed by Bonferroni's multiple comparison test vs. vehicle controls using the GraphPad PRISM software, *p<0.05, **p<0.01.

[3] = tested on: CFA induced PGE2 release in the ipsilateral inflamed hind paw of human KI mice (expressing human PTGES); test: PGE2 measurements in CFA inflammation model using humanized KI mice; type: in vivo; settings: for % inhibition of PGE2 in vivo vs vehicle: p.o., single dose, hind paw 48 h after CFA, 1 h after dose; for inhibition of CFA-induced PGE2 formation/release in the hind paw: single oral dosing, hu KI mice
Protocol: PGE2 Measurements in CFA Inflammation Model Using Humanized KI Mice
as §1, with “Female transgenic mice expressing the human PTGES enzyme (Taconic, Xu et al. 2008) received intraplantar injection of complete Freund's adjuvant (CFA) (30 μl, 1 mg/ml, Sigma) into the left hind paw under isoflurane anesthesia. […] At” for “At”

[4] = biological target: human PTGES (Homo sapiens (Human), UniProt O14684); test: Human PTGES biochemical enzyme inhibition assay (conversion of PGH2 to PGE2, TR-FRET)
Chain of human PTGES (O14684 whole entry): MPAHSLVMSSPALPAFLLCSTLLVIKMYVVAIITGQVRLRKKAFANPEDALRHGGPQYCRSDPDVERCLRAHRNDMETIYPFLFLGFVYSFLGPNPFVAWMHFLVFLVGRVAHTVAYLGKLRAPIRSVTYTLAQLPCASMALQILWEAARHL
Outline: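 FLAG-tagged human PTGES from Hi-5 insect cells preincubated 15–20 min with compound in pH 7.2 phosphate buffer with 2.5 mM reduced glutathione; reaction started with 8 nM PGH2 final, stopped with SnCl2/KF.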

[5] = tested on: vaginal hyperalgesia and proliferation in endometriotic lesions; test: Endometriosis disease model (dyspareunia model); type: in vivo, rat; settings: 0.75 mg/kg, bid, p.o.
Description: Endometriosis Disease Model (Dyspareunia Model)
Female SD rats underwent endometriosis surgery in the estrus phase. 4 uterine fragments were sewn onto the mesenteric artery arc (closed to small intestine) and few other fragments (>2) were sewn onto the distal colonic wall. In parallel electrodes for later Electromyography (EMG) recordings were implanted in the abdominal wall to allow recording of the visceral motor response. After training viscero-motor response (VMR)/vaginal distension (VD) testing was performed 5 and 6 weeks post-surgery in the proestrus phase. For vaginal distension session, the uninflated balloon was lubricated and inserted into the mid-vaginal canal, located so, that it would not touch the cervix even when inflated. Inflating the balloon with different volumes of water using a computer-controlled pump distended the vaginal canal. In parallel, EMG recordings were collected to measure the VMR related to the distension. At 6 weeks, post-surgery endometriotic lesions and endometrium were excised to perform lesion analysis. RNA expression analysis was performed of lesions and endometrium. RNA of lesions and endometrium was isolated after homogenization of tissues in guanidinium thiocyanate using the RNeasy mini Kit (Qiagen) with DNase digestion. One microgram of RNA was reversely transcribed with random hexamers using the SuperScript III First-Strand Synthesis System (Invitrogen). Real-time Taqman PCR analysis was performed using the 7900HT Real Time PCR-System (Applied Biosystems). Prevalidated probes and primers for Mki67 (antigen identified by monoclonal antibody Ki-67; catalog No. Rn01451446_m1) and the endogenous control TBP* (see FIG. 1A; TATA box binding protein; catalog No. Rn01455646_m1) were purchased from Applied Biosystems. Relative mRNA levels were calculated using the comparative […]CT method using the RQ-Manager software (Applied Biosystems).
Example 17 (0.75 mg/kg, bid, p.o.) was administered twice daily starting end of week 2 post surgery until week 5 post surgery.

[6] = Enzymatic conversion of PGH2 to PGE2, read-out: Human PTGES IC50
[7] = human PTGES, as listed in Table 2, read-out: hu IC50 biochem.

concentration at 1 h ([1]; plasma, oral, 1 mg/kg)	concentration at 1 h ([1]; plasma, oral, 3 mg/kg)	concentration at 1 h ([1]; plasma, oral, 10 mg/kg)	SMILES	pain behavior as assessed by DWB after CFA-induced inflammation [2]	% inhibition of PGE2 in vivo vs vehicle ([3]; 1 mg/kg)	% inhibition of PGE2 in vivo vs vehicle ([3]; 3 mg/kg)	% inhibition of PGE2 in vivo vs vehicle ([3]; 10 mg/kg)	inhibition of CFA-induced PGE2 formation/release in the hind paw [3]	IC50 [4, 6]	IC50 [4, 7]	vaginal hyperalgesia versus vehicle-treated animals ([5]; end of week 2 until week 5 post surgery, rats)	proliferation in lesions (gene expression of proliferation marker Ki67 vs. housekeeping control) ([5]; Taqman in week 6)	vaginal hyperalgesia effect in the treatment free period ([5]; treatment free period of week 6)	concentration at 1 h ([1]; in vivo, 1 mg/kg)	concentration at 1 h ([1]; in vivo, 3 mg/kg)	concentration at 1 h ([1]; in vivo, 10 mg/kg)
15 nM	47 nM	173 nM	Cc1c(CCC(=O)O)cccc1NC(=O)C(c1ccc(-c2cncc(Cl)c2)c(F)c1)C1CCCC1 (single isomer, unassigned; (-)) [Example 44, (−) 3-[3-({[4-(5-Chloropyridin-3-yl)-3-fluorophenyl](cyclopentyl)acetyl}amino)-2-methylphenyl]propanoic acid]	significantly and dose-dependently reduced pain behavior	95%	65%	100%	strong efficacy	–	–	–	–	–	–	–	–
21 nM	62 nM	190 nM	Cc1c(CCC(=O)O)cccc1NC(=O)[C@@H](c1ccc(-c2cncc(C(F)(F)F)c2)cc1)C1CCCC1 [Example 2, (−) (R) 3-{3-[(Cyclopentyl{4-[5-(trifluoromethyl)pyridin-3-yl]phenyl}acetyl)amino]-2-methylphenyl}propanoic acid]	–	37%	75%	94%	–	–	–	–	–	–	–	–	–

More lines, now with the values behind:

SMILES	concentration at 1 h ([1]; plasma, oral, 1 mg/kg)	concentration at 1 h ([1]; plasma, oral, 3 mg/kg)	concentration at 1 h ([1]; plasma, oral, 10 mg/kg)	pain behavior as assessed by DWB after CFA-induced inflammation [2]	% inhibition of PGE2 in vivo vs vehicle ([3]; 1 mg/kg)	% inhibition of PGE2 in vivo vs vehicle ([3]; 3 mg/kg)	% inhibition of PGE2 in vivo vs vehicle ([3]; 10 mg/kg)	inhibition of CFA-induced PGE2 formation/release in the hind paw [3]	IC50 [4, 6]	IC50 [4, 7]	vaginal hyperalgesia versus vehicle-treated animals ([5]; end of week 2 until week 5 post surgery, rats)	proliferation in lesions (gene expression of proliferation marker Ki67 vs. housekeeping control) ([5]; Taqman in week 6)	vaginal hyperalgesia effect in the treatment free period ([5]; treatment free period of week 6)	concentration at 1 h ([1]; in vivo, 1 mg/kg)	concentration at 1 h ([1]; in vivo, 3 mg/kg)	concentration at 1 h ([1]; in vivo, 10 mg/kg)
Cc1c(NC(=O)C(c2ccc(-c3cncc(Cl)c3)cc2)C2CCCC2)cccc1C(C)CC(=O)O (single isomer, unassigned; stereoisomer 2) [Example 87, 3-[3-({[4-(5-Chloropyridin-3-yl)phenyl](cyclopentyl)acetyl}amino)-2-methylphenyl]butanoic acid, Stereoisomer 2]	25 nM	75 nM	172 nM	–	43%	65%	67%	–	–	–	–	–	–	–	–	–
Cc1c(CCC(=O)O)cccc1NC(=O)[C@@H](c1ccc(-c2cncc(Cl)c2)cc1)C1CCCC1 [Example 17, (−) (R) 3-[3-({[4-(5-Chloropyridin-3-yl)phenyl](cyclopentyl)acetyl}amino)-2-methylphenyl]propanoic acid]	–	–	380 nM	significantly and dose-dependently reduced pain behavior	–	–	88%	strong efficacy	35.2 nM	35 nM	significantly decreased vaginal hyperalgesia	significantly reduced proliferation in lesions	effect was maintained	–	–	–
Cc1c(CCC(=O)O)cccc1NC(=O)C(c1ccc(-c2cncc(C(F)(F)F)c2)c(F)c1)C1CCCC1 (single isomer, unassigned; (-)) [Example 48, (−) 3-{3-[(Cyclopentyl{3-fluoro-4-[5-(trifluoromethyl)pyridin-3-yl]phenyl}acetyl)amino]-2-methylphenyl}propanoic acid]	–	–	–	–	38%	74%	78%	–	14.2 nM	3 nM	–	–	–	11 nM	32 nM	88 nM
Cc1c(CCC(=O)O)cccc1NC(=O)C(c1ccc(-c2cncc(C(F)(F)F)c2)cc1)C1CCC1 (single isomer, unassigned; (-)) [Example 55, (−) 3-{3-[(Cyclobutyl{4-[5-(trifluoromethyl)pyridin-3-yl]phenyl}acetyl)amino]-2-methylphenyl}propanoic acid]	–	–	–	–	84%	93%	96%	–	35.4 nM	27 nM	–	–	–	34 nM	103 nM	322 nM
